This passage reports GI50 and TGI results from PubChem BioAssay (NCI).

Several values for one entry are separate records, joined by “and”; a condition that tells them apart may be missing. Equal values may be shown once.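 Growth conditions: 96-well plates. Treatment: test compound, 48 hours, 5 concentrations. Analysis: linear interpolation between bracketing concentrations; unreached endpoints set to highest concentration. The concentration for 50% growth inhibition is given as GI50. At the TGI there is no net growth.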

Some test systems named below: A498 renal; KM12 colon; MALME-3M melanoma; NCI-H522 lung; OVCAR-4 ovarian; RXF 393 renal; SK-MEL-2 melanoma; TK-10 renal; UACC-257 melanoma.
Common to all, as to assay: NCI tumour cell line growth inhibition, 48 h

For `[O-]c1ccccc1C=Nc1ccc2c(c1)CCC2.[O-]c1ccccc1C=Nc1ccc2c(c1)CCC2.[O]=[U+2]=[O]`, the GI50 in the test on A498 renal, with KM12 colon, in the test on MALME-3M melanoma, with NCI-H522 lung, with OVCAR-4 ovarian and in the test with RXF 393 renal was over 100 µM in each case. Also, the GI50 is over 100 µM in the test on SK-MEL-2 melanoma, 30.1 µM in the test with TK-10 renal and over 100 µM with UACC-257 melanoma. The TGI in the test on A498 renal, with KM12 colon, in the test on MALME-3M melanoma, in the test on NCI-H522 lung, in the test with OVCAR-4 ovarian and in the test with RXF 393 renal was over 100 µM in each case. Further, the TGI is over 100 µM in the test on SK-MEL-2 melanoma, 82.2 µM in the test with TK-10 renal and over 100 µM in the test with UACC-257 melanoma.
Consider `CC(C)(O)/C=C/C(=O)[C@](C)(O)[C@H]1[C@H](O)C[C@@]2(C)[C@@H]3CC=C4[C@@H](C[C@H](O)C(=O)C4(C)C)[C@]3(C)C(=O)C[C@]12C`, for which the GI50 is 0.0909 µM with A498 renal; 0.948 µM with KM12 colon; 0.069 µM in the test with NCI-H522 lung; 0.161 µM and 0.891 µM in the test on OVCAR-4 ovarian; 0.187 µM with RXF 393 renal; 0.0294 µM in the test with SK-MEL-2 melanoma. The TGI was 0.244 µM and 0.115 µM with A498 renal; 25 µM in the test on KM12 colon; 0.932 µM with MALME-3M melanoma; 0.453 µM and 0.775 µM with NCI-H522 lung; 0.408 µM and 0.263 µM in the test with RXF 393 renal; 0.0829 µM and 0.131 µM with SK-MEL-2 melanoma. Besides, the TGI in the test with TK-10 renal is 0.473 µM and 0.495 µM; in the test with UACC-257 melanoma, 0.598 µM and 2.81 µM.
With `Cc1cc(C)nc(/C(=N\NC(N)=O)C(=O)Nc2nc3ccc(C)cc3s2)c1`, the TGI with A498 renal, in the test on KM12 colon, with MALME-3M melanoma, with NCI-H522 lung, in the test with OVCAR-4 ovarian and in the test on RXF 393 renal was over 100 µM each time. The TGI in the test on SK-MEL-2 melanoma, in the test with TK-10 renal and with UACC-257 melanoma was over 100 µM in each case.
For the molecule `COC(=O)CCC12CCC(=O)C1[C@@H](C(=O)OC)C[C@H]2C(=O)OC` (some centres undefined), the TGI with A498 renal, in the test with KM12 colon, in the test on MALME-3M melanoma, with NCI-H522 lung, in the test on OVCAR-4 ovarian and in the test with RXF 393 renal was over 100 µM each time. Further, the TGI in the test with SK-MEL-2 melanoma, with TK-10 renal and in the test on UACC-257 melanoma was over 100 µM in each case.
In the case of `CCOC(=O)CCC1(C(=O)OCC)CCCC1=O` (centres undefined), the TGI in the test on A498 renal, with KM12 colon, in the test on MALME-3M melanoma, in the test with NCI-H522 lung, in the test with OVCAR-4 ovarian and with RXF 393 renal was over 100 µM in each case. The TGI in the test with SK-MEL-2 melanoma, with TK-10 renal and in the test on UACC-257 melanoma was over 100 µM in each case.
As to `C#CCNC(=O)ON1C(=O)CCC1=O`, the TGI with A498 renal, with KM12 colon, in the test on MALME-3M melanoma, in the test on NCI-H522 lung, in the test on OVCAR-4 ovarian and in the test with RXF 393 renal was over 100 µM throughout. Besides, the TGI with SK-MEL-2 melanoma, in the test with TK-10 renal and in the test with UACC-257 melanoma was over 100 µM throughout.
On to `CCc1cccc(C)c1NC(=O)CCc1nnc2s/c(=C\c3cccc4ccccc34)c(=O)n12`, for which the TGI in the test with A498 renal, with KM12 colon, in the test on MALME-3M melanoma, with NCI-H522 lung, with OVCAR-4 ovarian and in the test with RXF 393 renal was over 100 µM each time. Also, the TGI with SK-MEL-2 melanoma, in the test with TK-10 renal and with UACC-257 melanoma was over 100 µM each time.
Regarding `Cc1cccc2c1c1ccc3c(c1n2C)C(=O)C=CC3=O`, the TGI with A498 renal turned out to be 44.5 µM; in the test on KM12 colon, 28.6 µM; in the test with MALME-3M melanoma, 14 µM; with NCI-H522 lung it was 2.97 µM; with OVCAR-4 ovarian, 24.3 µM; in the test with RXF 393 renal it was 7.86 µM. Also, the values for the TGI in the test with SK-MEL-2 melanoma, in the test on TK-10 renal and in the test with UACC-257 melanoma were 33.6 µM, 7.19 µM and 25 µM, respectively.
In the case of `COC(=O)C1=C(CS(=O)c2ccc([N+](=O)[O-])cc2[N+](=O)[O-])C2C=CC1C2` (centres undefined), the TGI in the test on A498 renal was over 100 µM; in the test with KM12 colon, over 100 µM; with MALME-3M melanoma it was 79.5 µM; in the test with NCI-H522 lung it was 27.3 µM; in the test with OVCAR-4 ovarian, 67.1 µM; in the test with RXF 393 renal, 52.1 µM. In addition, the TGI is over 100 µM in the test with SK-MEL-2 melanoma, 51.7 µM in the test on TK-10 renal and 92.2 µM with UACC-257 melanoma.
Consider `N#C/C(=C\c1cccc(O)c1O)C(N)=O`, for which the TGI in the test with A498 renal was over 100 µM; in the test with KM12 colon, over 100 µM; with MALME-3M melanoma, over 100 µM; with NCI-H522 lung, 58.4 µM; in the test on OVCAR-4 ovarian, over 100 µM; in the test with RXF 393 renal, 28 µM. For the same molecule, the TGI in the test on SK-MEL-2 melanoma, in the test on TK-10 renal and with UACC-257 melanoma was over 100 µM in each case.
